Test results as given in US11912686B2 (Gilead Sciences, Inc., priority 2020, dated 2024).

Molecular target: human LPAR1 (Homo sapiens (Human), UniProt Q92633)
Assay: LPAR1 intracellular calcium mobilization assay (antagonist mode, FLIPR)
Assay type: cell-based
Details: CHO-K1 EDG2 cells expressing human LPAR1, LPA 18:2 at EC80 (100 nM), test compound 0.5 nM to 10 μM

human LPAR1, sequence (Q92633 whole entry): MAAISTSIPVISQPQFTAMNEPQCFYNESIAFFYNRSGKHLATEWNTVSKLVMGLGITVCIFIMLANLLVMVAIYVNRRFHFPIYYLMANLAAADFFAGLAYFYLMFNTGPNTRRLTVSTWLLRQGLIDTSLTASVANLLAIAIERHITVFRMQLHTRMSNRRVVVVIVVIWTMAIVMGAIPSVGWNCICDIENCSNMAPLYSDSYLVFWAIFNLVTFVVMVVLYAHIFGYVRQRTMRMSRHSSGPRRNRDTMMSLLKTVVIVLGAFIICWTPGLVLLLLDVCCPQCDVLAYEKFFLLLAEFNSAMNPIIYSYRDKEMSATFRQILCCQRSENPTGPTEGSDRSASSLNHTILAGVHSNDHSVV

| SMILES | EC50 [nM] |
| --- | --- |
| C[C@@H](OC(=O)Nc1c(-c2ccc(NC(=O)[C@@H]3C[C@H]3c3ccccn3)cn2)nnn1C)c1cc(F)cnc1F [Compound 265, (R)-1-(2,5-difluoropyridin-3-yl)ethyl (1-methyl-4-(5-((1R,2R)-2-(pyridin-2-yl)cyclopropane-1-carboxamido)pyridin-2-yl)-1H-1,2,3-triazol-5-yl)carbamate] | 19.5 |
| C[C@@H](OC(=O)Nc1c(-c2ccc(NC(=O)[C@H]3C[C@@H]3c3ccccn3)cn2)nnn1C)c1cc(F)cnc1F [Compound 266, (R)-1-(2,5-difluoropyridin-3-yl)ethyl (1-methyl-4-(5-((1S,2S)-2-(pyridin-2-yl)cyclopropane-1-carboxamido)pyridin-2-yl)-1H-1,2,3-triazol-5-yl)carbamate] | 749 |
| C[C@@H](OC(=O)Nc1c(-c2ccc(NC(=O)[C@@H]3C[C@H]3C3CC3)cn2)nnn1C)c1cc(F)cnc1F [Compound 267, (R)-1-(2,5-difluoropyridin-3-yl)ethyl (4-(5-((1S,2R)[1,1′-bi(cyclopropane)]-2-carboxamido)pyridin-2-yl)-1-methyl-1H-1,2,3-triazol-5-yl)carbamate] | 588 |
| C[C@@H](OC(=O)Nc1c(-c2ccc(NC(=O)[C@H]3C[C@@H]3C3CC3)cn2)nnn1C)c1cc(F)cnc1F [Compound 268, (R)-1-(2,5-difluoropyridin-3-yl)ethyl (4-(5-((1R,2S)-[1,1′-bi(cyclopropane)]-2-carboxamido)pyridin-2-yl)-1-methyl-1H-1,2,3-triazol-5-yl)carbamate] | 7.3 |
| C[C@@H](OC(=O)Nc1c(-c2ccc(NC(=O)[C@]3(C#N)C[C@H]3F)cn2)nnn1C)c1cc(F)cnc1F [Compound 269, (R)-1-(2,5-difluoropyridin-3-yl)ethyl (4-(5-((1R,2R)-1-cyano-2-fluorocyclopropane-1-carboxamido)pyridin-2-yl)-1-methyl-1H-1,2,3-triazol-5-yl)carbamate] | 127 |
| C[C@@H](OC(=O)Nc1c(-c2ccc(NC(=O)[C@@]3(C#N)C[C@@H]3F)cn2)nnn1C)c1cc(F)cnc1F [Compound 270, (R)-1-(2,5-difluoropyridin-3-yl)ethyl (4-(5-((1S,2S)-1-cyano-2-fluorocyclopropane-1-carboxamido)pyridin-2-yl)-1-methyl-1H-1,2,3-triazol-5-yl)carbamate] | 168 |
| C[C@@H](OC(=O)Nc1c(-c2ccc(NC(=O)c3ccc(C4(C#N)CC4)nc3)cn2)nnn1C)c1cc(F)cnc1F [Compound 271, (R)-1-(2,5-difluoropyridin-3-yl)ethyl (4-(5-(6-(1-cyanocyclopropyl)nicotinamido)pyridin-2-yl)-1-methyl-1H-1,2,3-triazol-5-yl)carbamate] | 229 |
| C[C@@H](OC(=O)Nc1c(-c2ccc(NC(=O)c3ccc(C(C)(F)F)nc3)cn2)nnn1C)c1cc(F)cnc1F [Compound 272, (R)-1-(2,5-difluoropyridin-3-yl)ethyl (4-(5-(6-(1,1-difluoroethyl)nicotinamido)pyridin-2-yl)-1-methyl-1H-1,2,3-triazol-5-yl)carbamate] | 162 |
| C[C@@H](OC(=O)Nc1c(-c2ccc(NC(=O)c3ccnc(S(C)(=O)=O)c3)cn2)nnn1C)c1cc(F)cnc1F [Compound 273, (R)-1-(2,5-difluoropyridin-3-yl)ethyl (1-methyl-4-(5-(2-(methylsulfonyl)isonicotinamido)pyridin-2-yl)-1H-1,2,3-triazol-5-yl)carbamate] | 248 |
| C[C@@H](OC(=O)Nc1c(-c2ccc(NC(=O)c3ccc4ncn(C)c4c3)cn2)nnn1C)c1cc(F)cnc1F [Compound 274, (R)-1-(2,5-difluoropyridin-3-yl)ethyl (1-methyl-4-(5-(1-methyl-1H-benzo[d]imidazole-6-carboxamido)pyridin-2-yl)-1H-1,2,3-triazol-5-yl)carbamate] | 403 |
| C[C@@H](OC(=O)Nc1c(-c2ccc(NC(=O)c3cc(C(F)(F)F)cnc3F)cn2)nnn1C)c1cc(F)cnc1F [Compound 275, (R)-1-(2,5-difluoropyridin-3-yl)ethyl (4-(5-(2-fluoro-5-(trifluoromethyl)nicotinamido)pyridin-2-yl)-1-methyl-1H-1,2,3-triazol-5-yl)carbamate] | 241 |
| Cc1noc(C(=O)Nc2ccc(-c3nnn(C)c3NC(=O)O[C@H](C)c3cc(F)cnc3F)nc2)c1C [Compound 276, (R)-1-(2,5-difluoropyridin-3-yl)ethyl (4-(5-(3,4-dimethylisoxazole-5-carboxamido)pyridin-2-yl)-1-methyl-1H-1,2,3-triazol-5-yl)carbamate] | 140 |
| Cc1nc2cc(C(=O)Nc3ccc(-c4nnn(C)c4NC(=O)O[C@H](C)c4cc(F)cnc4F)nc3)cnc2[nH]1 [Compound 277, (R)-1-(2,5-difluoropyridin-3-yl)ethyl (1-methyl-4-(5-(2-methyl-3H-imidazo[4,5-b]pyridine-6-carboxamido)pyridin-2-yl)-1H-1,2,3-triazol-5-yl)carbamate] | 955 |
| C[C@@H](OC(=O)Nc1c(-c2ccc(NC(=O)c3cnc4cnn(C)c4c3)cn2)nnn1C)c1cc(F)cnc1F [Compound 278, (R)-1-(2,5-difluoropyridin-3-yl)ethyl (1-methyl-4-(5-(1-methyl-1H-pyrazolo[4,3-b]pyridine-6-carboxamido)pyridin-2-yl)-1H-1,2,3-triazol-5-yl)carbamate] | 810 |
| Cc1noc2cc(C(=O)Nc3ccc(-c4nnn(C)c4NC(=O)O[C@H](C)c4cc(F)cnc4F)nc3)ccc12 [Compound 279, (R)-1-(2,5-difluoropyridin-3-yl)ethyl (1-methyl-4-(5-(3-methylbenzo[d]isoxazole-6-carboxamido)pyridin-2-yl)-1H-1,2,3-triazol-5-yl)carbamate] | 97.4 |
| C[C@@H](OC(=O)Nc1c(-c2ccc(NC(=O)c3cnc(C4CC4)o3)cn2)nnn1C)c1cc(F)cnc1F [Compound 280, (R)-1-(2,5-difluoropyridin-3-yl)ethyl (4-(5-(2-cyclopropyloxazole-5-carboxamido)pyridin-2-yl)-1-methyl-1H-1,2,3-triazol-5-yl)carbamate] | 98.7 |
| COc1cc(C(=O)Nc2ccc(-c3nnn(C)c3NC(=O)O[C@H](C)c3cc(F)cnc3F)nc2)on1 [Compound 281, (R)-1-(2,5-difluoropyridin-3-yl)ethyl (4-(5-(3-methoxyisoxazole-5-carboxamido)pyridin-2-yl)-1-methyl-1H-1,2,3-triazol-5-yl)carbamate] | 86.6 |
| C[C@@H](OC(=O)Nc1c(-c2ccc(NC(=O)c3cnc(N(C)C)nc3)cn2)nnn1C)c1cc(F)cnc1F [Compound 282, (R)-1-(2,5-difluoropyridin-3-yl)ethyl (4-(5-(2-(dimethylamino)pyrimidine-5-carboxamido)pyridin-2-yl)-1-methyl-1H-1,2,3-triazol-5-yl)carbamate] | 1190 |
| C[C@@H](OC(=O)Nc1c(-c2ccc(NC(=O)c3cnc(C4CC4)nc3)cn2)nnn1C)c1cc(F)cnc1F [Compound 283, (R)-1-(2,5-difluoropyridin-3-yl)ethyl (4-(5-(2-cyclopropylpyrimidine-5-carboxamido)pyridin-2-yl)-1-methyl-1H-1,2,3-triazol-5-yl)carbamate] | 82.4 |
| C[C@@H](OC(=O)Nc1c(-c2ccc(NC(=O)c3cnc(N4CCOCC4)nc3)cn2)nnn1C)c1cc(F)cnc1F [Compound 284, (R)-1-(2,5-difluoropyridin-3-yl)ethyl (1-methyl-4-(5-(2-morpholinopyrimidine-5-carboxamido)pyridin-2-yl)-1H-1,2,3-triazol-5-yl)carbamate] | 908 |
| C[C@@H](OC(=O)Nc1c(-c2ncc(NC(=O)[C@]3(C#N)C[C@H]3C(F)F)cn2)nnn1C)c1cc(F)cnc1Cl [Compound 286, (R)-1-(2-chloro-5-fluoropyridin-3-yl)ethyl (4-(5-((1R,2R)-1-cyano-2-(difluoromethyl)cyclopropane-1-carboxamido)pyrimidin-2-yl)-1-methyl-1H-1,2,3-triazol-5-yl)carbamate] | 104 |
| C[C@@H](OC(=O)Nc1c(-c2ncc(NC(=O)[C@@]3(C#N)C[C@@H]3C(F)F)cn2)nnn1C)c1cc(F)cnc1Cl [Compound 287, (R)-1-(2-chloro-5-fluoropyridin-3-yl)ethyl (4-(5-((1S,2S)-1-cyano-2-(difluoromethyl)cyclopropane-1-carboxamido)pyrimidin-2-yl)-1-methyl-1H-1,2,3-triazol-5-yl)carbamate] | 1430 |
| C[C@@H](OC(=O)Nc1c(-c2ccc(NC(=O)c3ccc(C(F)(F)F)nc3)cn2)nnn1C)c1cc(F)cnc1Cl [Compound 288, (R)-1-(2-chloro-5-fluoropyridin-3-yl)ethyl (1-methyl-4-(5-(6-(trifluoromethyl)nicotinamido)pyridin-2-yl)-1H-1,2,3-triazol-5-yl)carbamate] | 33.5 |
| C[C@@H](OC(=O)Nc1c(-c2ccc(NC(=O)c3cnc(C(F)F)nc3)cn2)nnn1C)c1cc(F)cnc1Cl [Compound 289, (R)-1-(2-chloro-5-fluoropyridin-3-yl)ethyl (4-(5-(2-(difluoromethyl)pyrimidine-5-carboxamido)pyridin-2-yl)-1-methyl-1H-1,2,3-triazol-5-yl)carbamate] | 21.5 |
| C[C@@H](OC(=O)Nc1c(-c2ccc(NC(=O)c3cnc(C(F)(F)F)nc3)cn2)nnn1C)c1cc(F)cnc1Cl [Compound 290, (R)-1-(2-chloro-5-fluoropyridin-3-yl)ethyl (1-methyl-4-(5-(2-(trifluoromethyl)pyrimidine-5-carboxamido)pyridin-2-yl)-1H-1,2,3-triazol-5-yl)carbamate] | 10.9 |
| C[C@@H](OC(=O)Nc1c(-c2ccc(NC(=O)C3(C)CC(F)(F)C3)cn2)nnn1C)c1cccnc1F [Compound 291, (R)-1-(2-fluoropyridin-3-yl)ethyl (4-(5-(3,3-difluoro-1-methylcyclobutane-1-carboxamido)pyridin-2-yl)-1-methyl-1H-1,2,3-triazol-5-yl)carbamate] | 157 |
| C[C@@H](OC(=O)Nc1c(-c2ccc(NC(=O)c3ccc(Cl)nc3)cn2)nnn1C)c1cccnc1F [Compound 292, (R)-1-(2-fluoropyridin-3-yl)ethyl (4-(5-(6-chloronicotinamido)pyridin-2-yl)-1-methyl-1H-1,2,3-triazol-5-yl)carbamate] | 143 |
